Data taken from patent publication US11225505B2, “Antimicrobial polymyxin derivative compounds” (MONASH UNIVERSITY, priority 2015, dated 2022).
Values after ≈ are worked out from the molar mass of the structure shown. Where a SMILES comes first, the peptide text is derived from it. Bridges are numbered along the chain shown (N, C = ends). [ ]: non-standard residue; d: D form. The star is where a group is joined. X19 = O=C(c1ncc(C(F)(F)F)cc1Cl)*; X63 = O=C(c1ccc(C(F)(F)F)nc1Cl)*; X9 = O=C(c1ccnc(C(F)(F)F)c1)*; X28 = Cc1cc(C(=O)*)cc(Cl)n1; X17 = O=C(c1ncc(Br)cc1Cl)*; X30 = O=C(c1ccc(Cl)cn1)*; Dab = NCC[C@H](N)C(=O)O; Abu = CC[C@H](N)C(=O)O; Dap = NC[C@H](N)C(=O)O; X31 = O=C(c1ncccc1Cl)*; X53 = O=C(c1ccncc1Cl)*; X8 = O=C(c1ccnc(F)c1)*

Columns and labels:
Type in all cases: cell-based
[1] = system: Acinetobacter baumannii FADDI-AB030; test: microbe, parasite or virus in culture; details: FADDI-AB030
Procedure, shortened: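 Lipopeptide TFA salts tested against the multidrug-resistant clinical isolate by CLSI (M100-S24) broth microdilution in cation-adjusted Mueller-Hinton broth, with polymyxin B sulphate as control; MIC read.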

[2] = system: Klebsiella pneumoniae FADDI-KP032; details: FADDI-KP032
Procedure, shortened: (§1)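 Lipopeptide TFA salts were serially diluted in cation-adjusted Mueller-Hinton broth, inoculated with polymyxin-susceptible Gram-negative bacteria and scored for MIC according to CLSI guidance (M100-S24). Polymyxin B sulphate was included as comparator.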

[3] = system: Acinetobacter baumannii ATCC 17978; details: ATCC 17978
Procedure, shortened: as §1

[4] = system: Enterobacter cloacae FADDI-EC006; details: FADDI-EC006
Procedure, shortened: as §1

[5] = system: Enterobacter cloacae FADDI-EC003; details: FADDI-EC003
Procedure, shortened: as §1

[6] = system: Pseudomonas aeruginosa ATCC 27853; details: ATCC 27853
Procedure, shortened: as §1

[7] = system: Pseudomonas aeruginosa FADDI-PA022; details: FADDI-PA022
Procedure, shortened: as §1

[8] = system: Enterobacter cloacae FADDI-EC001; details: FADDI-EC001
Procedure, shortened: (§2)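 Values are MICs of the lipopeptide trifluoroacetic acid salts. Dilution series were set up in CAMHB as CLSI M100-S24 specifies.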

[9] = system: Pseudomonas aeruginosa FADDI-PA038; details: FADDI-PA038
Procedure, shortened: as §1

[10] = system: Klebsiella pneumoniae FADDI-KP022; details: FADDI-KP022
Procedure, shortened: as §1

[11] = system: Pseudomonas aeruginosa FADDI-PA01; details: FADDI-
Procedure, shortened: as §1

[12] = system: Klebsiella pneumoniae Kp BM1; details: Kp BM1
Procedure, shortened: as §2

[13] = system: Acinetobacter baumannii FADDI-AB034; details: FADDI-AB034
Procedure, shortened: as §1

Row | SMILES | Minimum inhibitory concentration [1] | Minimum inhibitory concentration [2] | Minimum inhibitory concentration [3] | Minimum inhibitory concentration [4] | Minimum inhibitory concentration [5] | Minimum inhibitory concentration [6] | Minimum inhibitory concentration [7] | Minimum inhibitory concentration [8] | Minimum inhibitory concentration [9] | Minimum inhibitory concentration [10] | Minimum inhibitory concentration [11] | Minimum inhibitory concentration [12] | Minimum inhibitory concentration [13]
1 | CC[C@@H]1NC(=O)[C@@H](CC(C)C)NC(=O)[C@H](CCN)NC(=O)[C@@H](NC(=O)[C@H](CN)NC(=O)[C@@H](NC(=O)[C@H](CCN)NC(=O)c2ccnc(F)c2)[C@@H](C)O)CCNC(=O)[C@H]([C@@H](C)O)NC(=O)[C@H](CCN)NC(=O)[C@H](CCN)NC1=O [Compound 31] (X8-[Dab]T[Dap][Dab][Dab][dL][Abu][Dab][Dab]T; lactam 4-C) | 2 mg/L (≈ 1.8 µM) | 1 mg/L (≈ 0.901 µM) | 2 mg/L (≈ 1.8 µM) | 1 mg/L (≈ 0.901 µM) | 0.5 mg/L (≈ 0.45 µM) | 0.25 mg/L (≈ 0.225 µM) | 0.25 mg/L (≈ 0.225 µM) | 0.5 mg/L (≈ 0.45 µM) | 0.5 mg/L (≈ 0.45 µM) | <0.125 mg/L | 0.25 mg/L (≈ 0.225 µM) | 1 mg/L (≈ 0.901 µM) | 2 mg/L (≈ 1.8 µM)
2 | CC(C)C[C@H]1NC(=O)[C@H](CCN)NC(=O)[C@@H](NC(=O)[C@H](CN)NC(=O)[C@@H](NC(=O)[C@H](CCN)NC(=O)c2ccnc(C(F)(F)F)c2)[C@@H](C)O)CCNC(=O)[C@H]([C@@H](C)O)NC(=O)[C@H](CCN)NC(=O)[C@H](CCN)NC(=O)[C@H]([C@@H](C)O)NC1=O [Compound 32] (X9-[Dab]T[Dap][Dab][Dab][dL]T[Dab][Dab]T; lactam 4-C; N-terminus assumed) | 1 mg/L (≈ 0.85 µM) | 0.25 mg/L (≈ 0.213 µM) | 4 mg/L (≈ 3.4 µM) | 1 mg/L (≈ 0.85 µM) | 0.5 mg/L (≈ 0.425 µM) | 0.5 mg/L (≈ 0.425 µM) | 0.5 mg/L (≈ 0.425 µM) | 1 mg/L (≈ 0.85 µM) | 0.5 mg/L (≈ 0.425 µM) | <0.125 mg/L | 1 mg/L (≈ 0.85 µM) | 1 mg/L (≈ 0.85 µM) | 2 mg/L (≈ 1.7 µM)
3 | CC[C@@H]1NC(=O)[C@@H](CC(C)C)NC(=O)[C@H](CCN)NC(=O)[C@@H](NC(=O)[C@H](CN)NC(=O)[C@@H](NC(=O)[C@H](CCN)NC(=O)c2ncc(Br)cc2Cl)[C@@H](C)O)CCNC(=O)[C@H]([C@@H](C)O)NC(=O)[C@H](CCN)NC(=O)[C@H](CCN)NC1=O [Compound 33] (X17-[Dab]T[Dap][Dab][Dab][dL][Abu][Dab][Dab]T; lactam 4-C) | 0.5 mg/L (≈ 0.415 µM) | <0.125 mg/L | 0.5 mg/L (≈ 0.415 µM) | <0.125 mg/L | <0.125 mg/L | 0.25 mg/L (≈ 0.207 µM) | 0.25 mg/L (≈ 0.207 µM) | <0.125 mg/L | 0.5 mg/L (≈ 0.415 µM) | <0.125 mg/L | 0.25 mg/L (≈ 0.207 µM) | <0.125 mg/L | 0.5 mg/L (≈ 0.415 µM)
4 | CC[C@@H]1NC(=O)[C@@H](CC(C)C)NC(=O)[C@H](CCN)NC(=O)[C@@H](NC(=O)[C@H](CN)NC(=O)[C@@H](NC(=O)[C@H](CCN)NC(=O)c2ccncc2Cl)[C@@H](C)O)CCNC(=O)[C@H]([C@@H](C)O)NC(=O)[C@H](CCN)NC(=O)[C@H](CCN)NC1=O [Compound 34] (X53-[Dab]T[Dap][Dab][Dab][dL][Abu][Dab][Dab]T; lactam 4-C) | 8 mg/L (≈ 7.1 µM) | 1 mg/L (≈ 0.888 µM) | 8 mg/L (≈ 7.1 µM) | 2 mg/L (≈ 1.78 µM) | 0.5 mg/L (≈ 0.444 µM) | 0.25 mg/L (≈ 0.222 µM) | 0.25 mg/L (≈ 0.222 µM) | 0.25 mg/L (≈ 0.222 µM) | 1 mg/L (≈ 0.888 µM) | <0.125 mg/L | 0.25 mg/L (≈ 0.222 µM) | 1 mg/L (≈ 0.888 µM) | 8 mg/L (≈ 7.1 µM)
5 | CC[C@@H]1NC(=O)[C@@H](CC(C)C)NC(=O)[C@H](CCN)NC(=O)[C@@H](NC(=O)[C@H](CN)NC(=O)[C@@H](NC(=O)[C@H](CCN)NC(=O)c2ncc(C(F)(F)F)cc2Cl)[C@@H](C)O)CCNC(=O)[C@H]([C@@H](C)O)NC(=O)[C@H](CCN)NC(=O)[C@H](CCN)NC1=O [Compound 35] (X19-[Dab]T[Dap][Dab][Dab][dL][Abu][Dab][Dab]T; lactam 4-C) | <0.125 mg/L | <0.125 mg/L | 0.25 mg/L (≈ 0.209 µM) | <0.125 mg/L | <0.125 mg/L | 0.25 mg/L (≈ 0.209 µM) | 0.5 mg/L (≈ 0.419 µM) | <0.125 mg/L | 0.5 mg/L (≈ 0.419 µM) | <0.125 mg/L | 0.25 mg/L (≈ 0.209 µM) | <0.125 mg/L | 0.25 mg/L (≈ 0.209 µM)
6 | CC[C@@H]1NC(=O)[C@@H](CC(C)C)NC(=O)[C@H](CCN)NC(=O)[C@@H](NC(=O)[C@H](CN)NC(=O)[C@@H](NC(=O)[C@H](CCN)NC(=O)c2ncccc2Cl)[C@@H](C)O)CCNC(=O)[C@H]([C@@H](C)O)NC(=O)[C@H](CCN)NC(=O)[C@H](CCN)NC1=O [Compound 36] (X31-[Dab]T[Dap][Dab][Dab][dL][Abu][Dab][Dab]T; lactam 4-C) | 4 mg/L (≈ 3.55 µM) | 1 mg/L (≈ 0.888 µM) | 8 mg/L (≈ 7.1 µM) | 2 mg/L (≈ 1.78 µM) | 0.5 mg/L (≈ 0.444 µM) | 0.5 mg/L (≈ 0.444 µM) | 0.5 mg/L (≈ 0.444 µM) | 0.25 mg/L (≈ 0.222 µM) | 1 mg/L (≈ 0.888 µM) | <0.125 mg/L | 0.5 mg/L (≈ 0.444 µM) | 2 mg/L (≈ 1.78 µM) | 4 mg/L (≈ 3.55 µM)
7 | CC[C@@H]1NC(=O)[C@@H](CC(C)C)NC(=O)[C@H](CCN)NC(=O)[C@@H](NC(=O)[C@H](CN)NC(=O)[C@@H](NC(=O)[C@H](CCN)NC(=O)c2ccc(Cl)cn2)[C@@H](C)O)CCNC(=O)[C@H]([C@@H](C)O)NC(=O)[C@H](CCN)NC(=O)[C@H](CCN)NC1=O [Compound 37] (X30-[Dab]T[Dap][Dab][Dab][dL][Abu][Dab][Dab]T; lactam 4-C) | 0.5 mg/L (≈ 0.444 µM) | <0.125 mg/L | 2 mg/L (≈ 1.78 µM) | 0.5 mg/L (≈ 0.444 µM) | 0.25 mg/L (≈ 0.222 µM) | 0.25 mg/L (≈ 0.222 µM) | 0.25 mg/L (≈ 0.222 µM) | 0.25 mg/L (≈ 0.222 µM) | 0.5 mg/L (≈ 0.444 µM) | <0.125 mg/L | 0.25 mg/L (≈ 0.222 µM) | <0.125 mg/L | 1 mg/L (≈ 0.888 µM)
8 | CC[C@@H]1NC(=O)[C@@H](CC(C)C)NC(=O)[C@H](CCN)NC(=O)[C@@H](NC(=O)[C@H](CN)NC(=O)[C@@H](NC(=O)[C@H](CCN)NC(=O)c2cc(C)nc(Cl)c2)[C@@H](C)O)CCNC(=O)[C@H]([C@@H](C)O)NC(=O)[C@H](CCN)NC(=O)[C@H](CCN)NC1=O [Compound 39] (X28-[Dab]T[Dap][Dab][Dab][dL][Abu][Dab][Dab]T; lactam 4-C) | 0.5 mg/L (≈ 0.438 µM) | 0.5 mg/L (≈ 0.438 µM) | 1 mg/L (≈ 0.877 µM) | 1 mg/L (≈ 0.877 µM) | 0.5 mg/L (≈ 0.438 µM) | 0.5 mg/L (≈ 0.438 µM) | 0.5 mg/L (≈ 0.438 µM) | 0.5 mg/L (≈ 0.438 µM) | 1 mg/L (≈ 0.877 µM) | <0.125 mg/L | 0.5 mg/L (≈ 0.438 µM) | 1 mg/L (≈ 0.877 µM) | 1 mg/L (≈ 0.877 µM)
9 | CC[C@@H]1NC(=O)[C@@H](CC(C)C)NC(=O)[C@H](CCN)NC(=O)[C@@H](NC(=O)[C@H](CN)NC(=O)[C@@H](NC(=O)[C@H](CCN)NC(=O)c2ccc(C(F)(F)F)nc2Cl)[C@@H](C)O)CCNC(=O)[C@H]([C@@H](C)O)NC(=O)[C@H](CCN)NC(=O)[C@H](CCN)NC1=O [Compound 40] (X63-[Dab]T[Dap][Dab][Dab][dL][Abu][Dab][Dab]T; lactam 4-C) | <0.125 mg/L | <0.125 mg/L | 0.5 mg/L (≈ 0.419 µM) | <0.125 mg/L | <0.125 mg/L | 0.5 mg/L (≈ 0.419 µM) | 0.5 mg/L (≈ 0.419 µM) | <0.125 mg/L | 1 mg/L (≈ 0.837 µM) | <0.125 mg/L | 0.5 mg/L (≈ 0.419 µM) | <0.125 mg/L | <0.125 mg/L
